The conditions of this data set: 101.33 kPa, Liquid.

Here are results for six molecules from the NIST ThermoML archive (doi:10.1021/je100069q).

± gives the expanded uncertainty stated by the source.

One may read the mass density as the mass of a sample divided by its volume.

Turning to `Cc1ccccc1O` [2-methylphenol], where the note is “308.15 K”, the mass density was 1032.73 ± 0.61 kg/m3.
For `Cc1cccc(O)c1` [3-methylphenol], the mass density (293.15 K) is on record as 1033.85 ± 0.28 kg/m3.
On to `Cc1ccc(O)cc1` [4-methylphenol], for which, where the note is “313.15 K”, the mass density turned out to be 1018.8 ± 0.27 kg/m3.
Take `CCc1ccccc1` [ethylbenzene]: the mass density (298.15 K) came to 862.59 ± 0.3 kg/m3.
Take `Oc1ccccc1` [phenol]: the mass density (313.15 K) turned out to be 1058.3 ± 0.35 kg/m3.
Turning to `Cc1ccccc1` [toluene], the mass density (293.15 K) was determined as 866.78 ± 0.31 kg/m3.
